Data taken from patent US20250340557A1, “PYRIMIDINE DERIVATIVE” (ASKA PHARMACEUTICAL CO., LTD., priority 2022, published 2025).

Molecular target: T1, human mPGES-1 (Homo sapiens, UniProt O14684)
T1 construct: made in house; host or cells: COS-1 cells (transient transfection; microsomal fraction used as enzyme)
T1 sequence (O14684 1-152): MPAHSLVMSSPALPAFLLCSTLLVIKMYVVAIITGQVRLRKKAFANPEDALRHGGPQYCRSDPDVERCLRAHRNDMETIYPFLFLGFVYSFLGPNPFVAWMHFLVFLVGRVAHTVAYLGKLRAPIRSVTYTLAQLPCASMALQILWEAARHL
Assay: Test for mPGES-1 inhibitory activity (microsomal enzyme, PGE2 EIA)
Format: biochemical
Details: microsomes from COS-1 cells transfected with human mPGES-1 cDNA; substrate PGH2 1 μM; 4° C., 4 minutes; PGE2 measured by EIA; read-out: h mPGES1 IC50
Procedure, shortened: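 Enzyme source was microsomes from COS-1 cells transiently expressing human mPGES-1, in sodium phosphate pH 7.2 with 2.5 mM GSH, 1 mM EDTA and 2% DMSO final. After a 15 min preincubation with compound at 4 °C, 1 μM PGH2 (final) reacted for 4 min at 4 °C.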

SMILES | IC50 [nM]
Cc1cccc(N2CCC(C(=O)NCc3ccc(C(F)(F)F)c(-c4nc(C(F)(F)F)cc(=O)[nH]4)c3F)CC2)c1 [Example 59, N-{2-fluoro-3-[6-oxo-4-(trifluoromethyl)-1,6-dihydropyrimidin-2-yl]-4-(trifluoromethyl)benzyl}-1-(3-methylphenyl)piperidine-4-carboxamide] | 4.2
O=C(NCc1ccc(C(F)(F)F)c(-c2nc(C(F)(F)F)cc(=O)[nH]2)c1F)C1CCN(c2ccc(C(F)(F)F)cc2)CC1 [Example 63, N-{2-fluoro-3-[6-oxo-4-(trifluoromethyl)-1,6-dihydropyrimidin-2-yl]-4-(trifluoromethyl)benzyl}-1-[4-(trifluoromethyl)phenyl]piperidine-4-carboxamide] | 1.1
O=C(NCc1ccc(C(F)(F)F)c(-c2nc(C(F)(F)F)cc(=O)[nH]2)c1F)C1CCN(c2ccc(OC(F)(F)F)cc2)CC1 [Example 68, N-{2-fluoro-3-[6-oxo-4-(trifluoromethyl)-1,6-dihydropyrimidin-2-yl]-4-(trifluoromethyl)benzyl}-1-[4-(trifluoromethoxy)phenyl]piperidine-4-carboxamide] | < 1
O=C(NCc1ccc(C(F)(F)F)c(-c2nc(C(F)(F)F)cc(=O)[nH]2)c1F)C1CCN(c2cccc(Cl)c2Cl)CC1 [Example 69, 1-(2,3-dichlorophenyl)-N-{2-fluoro-3-[6-oxo-4-(trifluoromethyl)-1,6-dihydropyrimidin-2-yl]-4-(trifluoromethyl)benzyl}piperidine-4-carboxamide] | 8.4
O=C(NCc1ccc(C(F)(F)F)c(-c2nc(C(F)(F)F)cc(=O)[nH]2)c1F)C1CCN(c2ccc(Cl)cc2F)CC1 [Example 70, 1-(4-chloro-2-fluorophenyl)-N-{2-fluoro-3-[6-oxo-4-(trifluoromethyl)-1,6-dihydropyrimidin-2-yl]-4-(trifluoromethyl)benzyl}piperidine-4-carboxamide] | 10
O=C(NCc1ccc(C(F)(F)F)c(-c2nc(C(F)(F)F)cc(=O)[nH]2)c1F)C1CCN(c2ccc(OC(F)F)cc2)CC1 [Example 71, 1-[4-(difluoromethoxy)phenyl]-N-{2-fluoro-3-[6-oxo-4-(trifluoromethyl)-1,6-dihydropyrimidin-2-yl]-4-(trifluoromethyl)benzyl}piperidine-4-carboxamide] | 10
Cc1nc(-c2c(C(F)(F)F)ccc(CNC(=O)C3CCN(c4ccc(OC(F)(F)F)cc4)CC3)c2F)[nH]c(=O)c1F [Example 72, N-[2-fluoro-3-(5-fluoro-4-methyl-6-oxo-1,6-dihydropyrimidin-2-yl)-4-(trifluoromethyl)benzyl]-1-[4-(trifluoromethoxy)phenyl]piperidine-4-carboxamide] | < 1
Cc1nc(-c2c(C(F)(F)F)ccc(CNC(=O)C3CCN(c4ccc(Cl)c(Cl)c4)CC3)c2F)[nH]c(=O)c1F [Example 73, 1-(3,4-dichlorophenyl)-N-[2-fluoro-3-(5-fluoro-4-methyl-6-oxo-1,6-dihydropyrimidin-2-yl)-4-(trifluoromethyl)benzyl]piperidine-4-carboxamide] | 4.4
O=C(NCc1ccc(C(F)(F)F)c(-c2nc(C(F)(F)F)cc(=O)[nH]2)c1F)C1CCN(c2cccc(OC(F)(F)F)c2)CC1 [Example 74, N-{2-fluoro-3-[6-oxo-4-(trifluoromethyl)-1,6-dihydropyrimidin-2-yl]-4-(trifluoromethyl)benzyl}-1-[3-(trifluoromethoxy)phenyl]piperidine-4-carboxamide] | < 1
N#Cc1ccc(N2CCC(C(=O)NCc3ccc(C(F)(F)F)c(-c4nc(C(F)(F)F)cc(=O)[nH]4)c3F)CC2)c(Cl)c1 [Example 75, 1-(2-chloro-4-cyanophenyl)-N-{2-fluoro-3-[6-oxo-4-(trifluoromethyl)-1,6-dihydropyrimidin-2-yl]-4-(trifluoromethyl)benzyl}piperidine-4-carboxamide] | < 1
Cc1cc(=O)[nH]c(-c2c(C(F)(F)F)ccc(CNC(=O)C3CCN(c4ccc(Cl)cc4)CC3)c2F)n1 [Example 76, 1-(4-chlorophenyl)-N-[2-fluoro-3-(4-methyl-6-oxo-1,6-dihydropyrimidin-2-yl)-4-(trifluoromethyl)benzyl]piperidine-4-carboxamide] | 31
Cc1nc(-c2c(C(F)(F)F)ccc(CNC(=O)C3CCN(c4ccc(Cl)cc4)CC3)c2F)[nH]c(=O)c1F [Example 77, 1-(4-chlorophenyl)-N-[2-fluoro-3-(5-fluoro-4-methyl-6-oxo-1,6-dihydropyrimidin-2-yl)-4-(trifluoromethyl)benzyl]piperidine-4-carboxamide] | 16
CCc1nc(-c2c(C(F)(F)F)ccc(CNC(=O)C3CCN(c4ccc(Cl)cc4)CC3)c2F)[nH]c(=O)c1F [Example 79, 1-(4-chlorophenyl)-N-[3-(4-ethyl-5-fluoro-6-oxo-1,6-dihydropyrimidin-2-yl)-2-fluoro-4-(trifluoromethyl)benzyl]piperidine-4-carboxamide] | 56
CCc1nc(-c2c(C(F)(F)F)ccc(CNC(=O)C3CCN(c4ccc(OC(F)(F)F)cc4)CC3)c2F)[nH]c(=O)c1F [Example 80, N-[3-(4-ethyl-5-fluoro-6-oxo-1,6-dihydropyrimidin-2-yl)-2-fluoro-4-(trifluoromethyl)benzyl]-1-[4-(trifluoromethoxy)phenyl]piperidine-4-carboxamide] | 22
O=C(NCc1ccc(C(F)(F)F)c(-c2nc(C(F)(F)F)cc(=O)[nH]2)c1F)C1CCN(c2ccc(Cl)c(F)c2)CC1 [Example 81, 1-(4-chloro-3-fluorophenyl)-N-{2-fluoro-3-[6-oxo-4-(trifluoromethyl)-1,6-dihydropyrimidin-2-yl]-4-(trifluoromethyl)benzyl}piperidine-4-carboxamide] | 5
O=C(NCc1ccc(C(F)(F)F)c(-c2nc(C(F)(F)F)cc(=O)[nH]2)c1F)C1CCN(c2cc(Cl)cc(Cl)c2)CC1 [Example 82, 1-(3,5-dichlorophenyl)-N-{2-fluoro-3-[6-oxo-4-(trifluoromethyl)-1,6-dihydropyrimidin-2-yl]-4-(trifluoromethyl)benzyl}piperidine-4-carboxamide] | 8.1
COc1cc(N2CCC(C(=O)NCc3ccc(C(F)(F)F)c(-c4nc(C(F)(F)F)cc(=O)[nH]4)c3F)CC2)ccc1Cl [Example 83, 1-(4-chloro-3-methoxyphenyl)-N-{2-fluoro-3-[6-oxo-4-(trifluoromethyl)-1,6-dihydropyrimidin-2-yl]-4-(trifluoromethyl)benzyl}piperidine-4-carboxamide] | 7.1

Other lines, results leading:

IC50 [nM] | SMILES
< 1 | O=C(NCc1ccc(C(F)(F)F)c(-c2nc(C(F)(F)F)cc(=O)[nH]2)c1F)C1CCN(c2ccc(F)cc2)CC1 [Example 58, N-{2-fluoro-3-[6-oxo-4-(trifluoromethyl)-1,6-dihydropyrimidin-2-yl]-4-(trifluoromethyl)benzyl}-1-(4-fluorophenyl)piperidine-4-carboxamide]
< 1 | Cc1cc(N2CCC(C(=O)NCc3ccc(C(F)(F)F)c(-c4nc(C(F)(F)F)cc(=O)[nH]4)c3F)CC2)ccc1F [Example 60, N-{2-fluoro-3-[6-oxo-4-(trifluoromethyl)-1,6-dihydropyrimidin-2-yl]-4-(trifluoromethyl)benzyl}-1-(4-fluoro-3-methylphenyl)piperidine-4-carboxamide]
0.87 | Cc1ccc(N2CCC(C(=O)NCc3ccc(C(F)(F)F)c(-c4nc(C(F)(F)F)cc(=O)[nH]4)c3F)CC2)cc1 [Example 61, N-{2-fluoro-3-[6-oxo-4-(trifluoromethyl)-1,6-dihydropyrimidin-2-yl]-4-(trifluoromethyl)benzyl}-1-(4-methylphenyl)piperidine-4-carboxamide]
< 1 | O=C(NCc1ccc(C(F)(F)F)c(-c2nc(C(F)(F)F)cc(=O)[nH]2)c1F)C1CCN(c2cccc(Cl)c2)CC1 [Example 62, 1-(3-chlorophenyl)-N-{2-fluoro-3-[6-oxo-4-(trifluoromethyl)-1,6-dihydropyrimidin-2-yl]-4-(trifluoromethyl)benzyl}piperidine-4-carboxamide]
< 1 | O=C(NCc1ccc(C(F)(F)F)c(-c2nc(C(F)(F)F)cc(=O)[nH]2)c1F)C1CCN(c2ccc(Cl)cc2)CC1 [Example 64, 1-(4-chlorophenyl)-N-{2-fluoro-3-[6-oxo-4-(trifluoromethyl)-1,6-dihydropyrimidin-2-yl]-4-(trifluoromethyl)benzyl}piperidine-4-carboxamide]
< 1 | O=C(NCc1ccc(C(F)(F)F)c(-c2nc(C(F)(F)F)cc(=O)[nH]2)c1F)C1CCN(c2cccc(C(F)F)c2)CC1 [Example 65, 1-[3-(difluoromethyl)phenyl]-N-{2-fluoro-3-[6-oxo-4-(trifluoromethyl)-1,6-dihydropyrimidin-2-yl]-4-(trifluoromethyl)benzyl}piperidine-4-carboxamide]
< 1 | O=C(NCc1ccc(C(F)(F)F)c(-c2nc(C(F)(F)F)cc(=O)[nH]2)c1F)C1CCN(c2ccc(Cl)c(Cl)c2)CC1 [Example 66, 1-(3,4-dichlorophenyl)-N-{2-fluoro-3-[6-oxo-4-(trifluoromethyl)-1,6-dihydropyrimidin-2-yl]-4-(trifluoromethyl)benzyl}piperidine-4-carboxamide]
< 1 | O=C(NCc1ccc(C(F)(F)F)c(-c2nc(C(F)(F)F)cc(=O)[nH]2)c1F)C1CCN(c2cccc(C(F)(F)F)c2)CC1 [Example 67, N-{2-fluoro-3-[6-oxo-4-(trifluoromethyl)-1,6-dihydropyrimidin-2-yl]-4-(trifluoromethyl)benzyl}-1-[3-(trifluoromethyl)phenyl]piperidine-4-carboxamide]
